Data from ChEMBL document CHEMBL4507276 (2021).

Tests used:
Settings in all cases: Compound concentration 1000.0 nM
[1] = tested on: Tyrosine-protein kinase ABL1 (Homo sapiens), P00519 [Y253F]
[2] = target: ALK tyrosine kinase receptor (Homo sapiens) (UniProt Q9UM73)
[3] = target: T1, Serine/threonine-protein kinase DCLK2 (Homo sapiens) (UniProt Q8N568)
T1 sequence (whole entry): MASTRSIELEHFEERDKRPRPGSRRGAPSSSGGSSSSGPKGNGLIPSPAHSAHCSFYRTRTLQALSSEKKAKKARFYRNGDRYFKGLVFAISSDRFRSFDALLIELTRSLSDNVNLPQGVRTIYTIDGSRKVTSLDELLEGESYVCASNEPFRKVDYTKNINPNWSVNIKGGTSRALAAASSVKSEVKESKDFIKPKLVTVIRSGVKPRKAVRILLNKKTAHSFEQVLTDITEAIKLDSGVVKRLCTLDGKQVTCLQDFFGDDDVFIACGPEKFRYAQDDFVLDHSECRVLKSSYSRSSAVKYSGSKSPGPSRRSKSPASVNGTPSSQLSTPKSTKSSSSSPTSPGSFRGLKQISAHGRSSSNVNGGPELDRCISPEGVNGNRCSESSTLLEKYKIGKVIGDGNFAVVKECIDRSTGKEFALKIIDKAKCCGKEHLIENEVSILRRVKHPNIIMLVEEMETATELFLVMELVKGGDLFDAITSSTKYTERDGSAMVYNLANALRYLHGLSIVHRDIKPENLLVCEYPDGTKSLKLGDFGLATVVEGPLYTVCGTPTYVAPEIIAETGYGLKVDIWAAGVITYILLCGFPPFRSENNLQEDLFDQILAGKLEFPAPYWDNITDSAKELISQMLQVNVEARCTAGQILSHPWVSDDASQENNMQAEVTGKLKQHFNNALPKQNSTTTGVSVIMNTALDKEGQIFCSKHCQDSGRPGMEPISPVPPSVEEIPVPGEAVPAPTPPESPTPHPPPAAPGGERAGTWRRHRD

[4] = tested on: Receptor-type tyrosine-protein kinase FLT3 (Homo sapiens), P36888 [UNDEFINED MUTATION]
[5] = tested on: Receptor-type tyrosine-protein kinase FLT3 (Homo sapiens), P36888 [N841I]
[6] = target: T2, Mitogen-activated protein kinase kinase kinase kinase 2 (Homo sapiens) (UniProt Q12851)
T2 sequence (whole entry): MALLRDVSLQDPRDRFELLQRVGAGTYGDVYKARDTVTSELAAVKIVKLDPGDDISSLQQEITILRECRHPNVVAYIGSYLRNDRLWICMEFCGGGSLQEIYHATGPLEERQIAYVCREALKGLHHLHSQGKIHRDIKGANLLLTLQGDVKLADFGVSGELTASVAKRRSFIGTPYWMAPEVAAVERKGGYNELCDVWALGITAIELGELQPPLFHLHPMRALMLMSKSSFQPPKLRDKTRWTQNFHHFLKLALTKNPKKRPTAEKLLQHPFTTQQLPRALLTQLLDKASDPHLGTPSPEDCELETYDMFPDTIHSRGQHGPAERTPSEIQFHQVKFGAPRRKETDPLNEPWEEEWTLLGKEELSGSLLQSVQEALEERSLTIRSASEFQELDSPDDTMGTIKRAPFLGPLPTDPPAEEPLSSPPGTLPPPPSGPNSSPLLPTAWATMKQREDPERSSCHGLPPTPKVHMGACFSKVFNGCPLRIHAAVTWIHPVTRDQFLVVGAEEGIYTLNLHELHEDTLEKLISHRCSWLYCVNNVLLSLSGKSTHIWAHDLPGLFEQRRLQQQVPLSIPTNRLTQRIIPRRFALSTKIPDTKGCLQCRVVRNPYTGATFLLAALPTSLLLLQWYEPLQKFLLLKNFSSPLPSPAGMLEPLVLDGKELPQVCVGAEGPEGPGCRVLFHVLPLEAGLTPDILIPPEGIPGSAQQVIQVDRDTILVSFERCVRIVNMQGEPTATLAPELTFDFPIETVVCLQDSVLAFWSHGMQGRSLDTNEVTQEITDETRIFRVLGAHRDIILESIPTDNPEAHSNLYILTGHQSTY

[7] = target: T3, MAP kinase-activated protein kinase 5 (Homo sapiens) (UniProt Q8IW41)
T3 sequence (whole entry): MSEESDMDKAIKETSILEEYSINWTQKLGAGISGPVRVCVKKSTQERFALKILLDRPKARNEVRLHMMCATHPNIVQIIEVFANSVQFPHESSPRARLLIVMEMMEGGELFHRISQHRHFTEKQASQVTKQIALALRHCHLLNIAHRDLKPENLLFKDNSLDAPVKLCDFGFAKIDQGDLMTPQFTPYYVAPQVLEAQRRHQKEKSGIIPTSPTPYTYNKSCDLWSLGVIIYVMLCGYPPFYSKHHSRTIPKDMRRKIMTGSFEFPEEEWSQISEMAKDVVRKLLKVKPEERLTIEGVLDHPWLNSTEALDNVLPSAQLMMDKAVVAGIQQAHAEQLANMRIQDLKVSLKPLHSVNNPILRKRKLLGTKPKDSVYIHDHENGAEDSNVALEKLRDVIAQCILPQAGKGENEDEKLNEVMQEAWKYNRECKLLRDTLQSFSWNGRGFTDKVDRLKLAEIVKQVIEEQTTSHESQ

[8] = target: Serine/threonine-protein kinase 26 (Homo sapiens) (UniProt Q9P289)
[9] = tested on: Phosphatidylinositol 4,5-bisphosphate 3-kinase catalytic subunit alpha isoform (Homo sapiens), P42336 [H1047Y]
[10] = target: Phosphatidylinositol 4-phosphate 5-kinase type-1 alpha (Homo sapiens) (UniProt Q99755)
[11] = target: cAMP-dependent protein kinase catalytic subunit alpha (Homo sapiens) (UniProt P17612)
[12] = target: Serine/threonine-protein kinase RIO2 (Homo sapiens) (UniProt Q9BVS4)
[13] = target: Wee1-like protein kinase 2 (Homo sapiens) (UniProt P0C1S8)
[14] = target: Serine/threonine-protein kinase WNK4 (Homo sapiens) (UniProt Q96J92)

Measured: residual activity

Chain of Phosphatidylinositol 4-phosphate 5-kinase type-1 alpha (Homo sapiens) (Q99755 whole entry): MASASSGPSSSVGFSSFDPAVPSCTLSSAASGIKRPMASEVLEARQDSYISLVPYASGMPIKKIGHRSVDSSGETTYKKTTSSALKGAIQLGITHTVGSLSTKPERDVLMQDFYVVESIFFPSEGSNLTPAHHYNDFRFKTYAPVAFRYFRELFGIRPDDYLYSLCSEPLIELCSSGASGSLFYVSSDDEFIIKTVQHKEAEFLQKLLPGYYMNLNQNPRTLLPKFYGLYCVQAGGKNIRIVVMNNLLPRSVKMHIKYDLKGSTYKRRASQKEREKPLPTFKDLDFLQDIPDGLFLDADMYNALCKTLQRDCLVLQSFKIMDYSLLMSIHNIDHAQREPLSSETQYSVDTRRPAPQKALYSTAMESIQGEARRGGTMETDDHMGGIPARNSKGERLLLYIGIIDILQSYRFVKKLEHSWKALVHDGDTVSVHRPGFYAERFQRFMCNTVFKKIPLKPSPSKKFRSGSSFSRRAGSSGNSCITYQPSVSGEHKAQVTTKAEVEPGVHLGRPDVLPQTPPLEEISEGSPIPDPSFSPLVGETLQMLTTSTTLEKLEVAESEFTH
Chain of Serine/threonine-protein kinase WNK4 (Homo sapiens) (Q96J92 whole entry): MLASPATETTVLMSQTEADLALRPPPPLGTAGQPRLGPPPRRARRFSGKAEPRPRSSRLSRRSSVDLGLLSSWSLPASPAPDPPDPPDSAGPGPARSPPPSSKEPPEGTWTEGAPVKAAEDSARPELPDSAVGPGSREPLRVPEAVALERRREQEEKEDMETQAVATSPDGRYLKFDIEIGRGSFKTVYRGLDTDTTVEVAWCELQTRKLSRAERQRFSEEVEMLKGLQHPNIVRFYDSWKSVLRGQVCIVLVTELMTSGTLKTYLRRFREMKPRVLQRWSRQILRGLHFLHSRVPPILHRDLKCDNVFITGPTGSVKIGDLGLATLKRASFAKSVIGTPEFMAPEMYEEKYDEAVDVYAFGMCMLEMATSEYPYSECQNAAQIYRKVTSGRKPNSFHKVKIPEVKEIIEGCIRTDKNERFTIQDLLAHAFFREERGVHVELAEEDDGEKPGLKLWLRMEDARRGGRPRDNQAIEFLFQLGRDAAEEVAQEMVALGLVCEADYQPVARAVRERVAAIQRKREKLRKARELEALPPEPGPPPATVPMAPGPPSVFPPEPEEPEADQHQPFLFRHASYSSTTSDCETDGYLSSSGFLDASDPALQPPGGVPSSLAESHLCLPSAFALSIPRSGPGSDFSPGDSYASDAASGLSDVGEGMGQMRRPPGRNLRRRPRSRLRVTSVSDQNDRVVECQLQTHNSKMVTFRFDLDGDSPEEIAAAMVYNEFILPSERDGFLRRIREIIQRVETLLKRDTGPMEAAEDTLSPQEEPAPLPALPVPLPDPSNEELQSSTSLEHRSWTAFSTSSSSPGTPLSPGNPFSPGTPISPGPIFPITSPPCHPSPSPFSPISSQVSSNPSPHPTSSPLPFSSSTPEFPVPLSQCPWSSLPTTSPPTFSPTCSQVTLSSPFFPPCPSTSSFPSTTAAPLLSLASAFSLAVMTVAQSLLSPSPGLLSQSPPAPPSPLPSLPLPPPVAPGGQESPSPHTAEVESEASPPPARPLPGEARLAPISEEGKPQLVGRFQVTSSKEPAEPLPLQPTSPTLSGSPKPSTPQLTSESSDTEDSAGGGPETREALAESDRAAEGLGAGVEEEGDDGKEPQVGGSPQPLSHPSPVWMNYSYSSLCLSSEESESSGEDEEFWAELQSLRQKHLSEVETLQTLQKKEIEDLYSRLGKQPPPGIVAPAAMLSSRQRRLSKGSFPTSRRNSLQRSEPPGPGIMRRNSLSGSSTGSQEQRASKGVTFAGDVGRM
Chain of Wee1-like protein kinase 2 (Homo sapiens) (P0C1S8 whole entry, looked up): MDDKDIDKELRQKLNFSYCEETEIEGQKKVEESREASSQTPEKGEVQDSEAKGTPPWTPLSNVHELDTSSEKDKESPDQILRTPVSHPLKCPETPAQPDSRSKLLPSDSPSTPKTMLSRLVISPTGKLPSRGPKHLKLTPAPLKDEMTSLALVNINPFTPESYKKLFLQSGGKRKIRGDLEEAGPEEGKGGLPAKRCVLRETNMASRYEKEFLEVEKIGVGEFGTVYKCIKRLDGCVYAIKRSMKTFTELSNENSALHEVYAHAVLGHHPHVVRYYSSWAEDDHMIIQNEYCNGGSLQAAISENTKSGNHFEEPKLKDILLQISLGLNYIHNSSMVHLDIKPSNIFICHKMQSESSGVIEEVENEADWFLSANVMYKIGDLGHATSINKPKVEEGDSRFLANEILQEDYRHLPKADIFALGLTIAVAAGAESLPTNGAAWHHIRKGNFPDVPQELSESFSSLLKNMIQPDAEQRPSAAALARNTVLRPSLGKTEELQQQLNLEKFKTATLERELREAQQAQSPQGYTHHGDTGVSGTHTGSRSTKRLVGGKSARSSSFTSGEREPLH
Chain of Serine/threonine-protein kinase 26 (Homo sapiens) (Q9P289 2-416 limits assumed): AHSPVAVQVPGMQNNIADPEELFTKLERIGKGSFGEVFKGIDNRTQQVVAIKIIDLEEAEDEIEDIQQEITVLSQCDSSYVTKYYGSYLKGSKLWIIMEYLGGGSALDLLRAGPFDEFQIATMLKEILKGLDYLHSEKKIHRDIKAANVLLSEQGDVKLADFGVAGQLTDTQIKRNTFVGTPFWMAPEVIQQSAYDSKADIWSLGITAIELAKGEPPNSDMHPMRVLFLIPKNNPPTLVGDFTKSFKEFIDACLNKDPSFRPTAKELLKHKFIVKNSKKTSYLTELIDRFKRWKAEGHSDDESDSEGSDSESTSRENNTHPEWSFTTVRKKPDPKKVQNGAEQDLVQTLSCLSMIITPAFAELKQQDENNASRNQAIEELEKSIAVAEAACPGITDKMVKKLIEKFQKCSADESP
Chain of ALK tyrosine kinase receptor (Homo sapiens) (Q9UM73 19-1620 limits assumed): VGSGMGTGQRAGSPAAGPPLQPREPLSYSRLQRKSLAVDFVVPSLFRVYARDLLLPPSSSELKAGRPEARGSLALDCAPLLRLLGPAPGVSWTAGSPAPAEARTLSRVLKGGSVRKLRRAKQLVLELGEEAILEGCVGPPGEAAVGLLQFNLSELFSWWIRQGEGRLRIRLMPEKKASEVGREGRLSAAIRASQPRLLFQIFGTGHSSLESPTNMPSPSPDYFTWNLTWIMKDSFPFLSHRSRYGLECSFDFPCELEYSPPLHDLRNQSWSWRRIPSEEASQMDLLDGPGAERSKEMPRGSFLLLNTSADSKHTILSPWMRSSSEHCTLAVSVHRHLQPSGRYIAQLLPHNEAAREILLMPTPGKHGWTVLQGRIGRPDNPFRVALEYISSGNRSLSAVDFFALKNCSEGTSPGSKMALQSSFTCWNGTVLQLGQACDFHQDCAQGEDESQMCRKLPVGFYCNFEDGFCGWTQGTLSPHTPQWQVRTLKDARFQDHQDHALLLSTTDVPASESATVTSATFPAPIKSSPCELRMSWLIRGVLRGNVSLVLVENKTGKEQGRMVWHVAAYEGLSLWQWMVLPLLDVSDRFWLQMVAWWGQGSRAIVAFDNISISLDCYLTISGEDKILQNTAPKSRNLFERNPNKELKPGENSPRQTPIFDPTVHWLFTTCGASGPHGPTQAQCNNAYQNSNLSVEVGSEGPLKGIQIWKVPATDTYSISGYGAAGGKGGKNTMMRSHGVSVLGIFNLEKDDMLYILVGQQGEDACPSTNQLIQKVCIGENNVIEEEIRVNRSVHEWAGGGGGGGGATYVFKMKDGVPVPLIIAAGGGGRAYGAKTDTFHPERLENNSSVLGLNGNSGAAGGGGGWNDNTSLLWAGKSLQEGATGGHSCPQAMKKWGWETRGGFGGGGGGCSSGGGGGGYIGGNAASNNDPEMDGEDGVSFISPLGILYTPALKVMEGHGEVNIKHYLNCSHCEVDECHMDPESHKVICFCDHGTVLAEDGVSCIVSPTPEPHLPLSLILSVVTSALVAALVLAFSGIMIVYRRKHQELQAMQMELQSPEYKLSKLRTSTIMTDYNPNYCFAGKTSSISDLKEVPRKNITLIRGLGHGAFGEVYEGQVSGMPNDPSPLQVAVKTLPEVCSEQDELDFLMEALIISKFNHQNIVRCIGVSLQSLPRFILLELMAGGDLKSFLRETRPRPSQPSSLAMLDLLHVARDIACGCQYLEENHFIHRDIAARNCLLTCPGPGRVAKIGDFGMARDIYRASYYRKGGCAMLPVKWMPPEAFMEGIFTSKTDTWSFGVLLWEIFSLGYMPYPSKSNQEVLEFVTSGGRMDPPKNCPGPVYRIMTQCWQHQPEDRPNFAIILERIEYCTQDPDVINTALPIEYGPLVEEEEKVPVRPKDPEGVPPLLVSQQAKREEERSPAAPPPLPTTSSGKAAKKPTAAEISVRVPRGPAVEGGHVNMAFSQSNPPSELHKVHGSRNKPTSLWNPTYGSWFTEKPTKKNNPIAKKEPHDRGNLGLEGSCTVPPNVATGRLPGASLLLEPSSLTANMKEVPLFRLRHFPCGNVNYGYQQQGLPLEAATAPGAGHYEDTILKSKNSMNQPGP
Chain of Serine/threonine-protein kinase RIO2 (Homo sapiens) (Q9BVS4 whole entry, looked up): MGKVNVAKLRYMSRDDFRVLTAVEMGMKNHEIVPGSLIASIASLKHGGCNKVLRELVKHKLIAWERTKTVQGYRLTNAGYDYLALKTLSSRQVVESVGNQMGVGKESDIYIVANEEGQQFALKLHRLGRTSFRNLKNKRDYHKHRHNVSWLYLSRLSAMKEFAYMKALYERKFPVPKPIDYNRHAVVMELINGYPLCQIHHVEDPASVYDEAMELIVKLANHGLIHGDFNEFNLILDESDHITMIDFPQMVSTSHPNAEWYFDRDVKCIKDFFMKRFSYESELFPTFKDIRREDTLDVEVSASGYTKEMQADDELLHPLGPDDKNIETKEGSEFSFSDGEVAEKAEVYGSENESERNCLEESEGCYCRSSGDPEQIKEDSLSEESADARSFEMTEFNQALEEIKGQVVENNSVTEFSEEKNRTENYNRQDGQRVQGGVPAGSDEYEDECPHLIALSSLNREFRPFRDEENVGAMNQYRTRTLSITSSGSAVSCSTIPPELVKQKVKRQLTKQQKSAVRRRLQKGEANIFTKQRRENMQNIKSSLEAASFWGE

CN(C)C(=O)Cn1cc(-c2nc(C3(c4ccc(-c5cnc(N)nc5)cc4)CC3)no2)cn1 [BI 0153]
inactive: [1] 98% | [2] 77% | [3] 96% | [4] 85% | [5] 100% | [6] 89% | [7] 92% | [8] 89% | [9] 94% | [10] 95% | [11] 91% | [12] 76% | [13] 99% | [14] 80%

CN(C)C(=O)Cn1cc(-c2nc([C@@](C)(c3ccc(-c4cnc(N)nc4)cc3)C3CC3)no2)cn1 [BI 665915]
inactive: [1] 76% | [2] 85% | [3] 91% | [4] 100% | [5] 83% | [6] 100% | [7] 94% | [8] 97% | [9] 87% | [10] 90% | [11] 87% | [12] 87% | [13] 100% | [14] 93%
